How the values were obtained:
Type in all cases: cell-based, human
[1] = system: H1-hESC-derived S3D5 cells; assay: Gene expression by qPCR (Taqman Arrays) in S3D5 cells
Protocol: (§1) Differentiation: The cultures were differentiated using the following protocol. During Stages 1 through 3 of the protocol, cultures were maintained on planar adherent cultures. […] The following nomenclature, S#D#, specifies exact time during Stages 1 through 3. For example, S1D3 is stage 1 day 3. Briefly, each stage defines differentiation towards definitive endoderm (stage 1), primitive gut tube (stage 2), and intestinal midgut endoderm (stage 3). • a. Stage 1 (3 days): Cells were cultured for one day in the following Stage 1 media:
For quantification of gene expression at various stages, Caco-2, H1-hESC, S1D3, S2D2, S3D2 and S3D5 cells were harvested, as described in Nature Biotechnology, 2014 (32) 11, 1121-1133. Briefly, gene expression was assessed in cells using custom Taqman® Arrays (Applied Biosystems, Foster City, Calif.); Open Array® (OA) was used for CDX2, FOXA2, SOX2, SOX9, PDX1, ALB, PTF1A, and Taqman® Low Density Array (TLDA) was used for KLF5, HOXC5, and LGR5, with housekeeping gene GAPDH used for both tests. Data were analyzed using Sequence Detection Software (Applied Biosystems, Foster City, Calif.), and normalized using GAPDH as a housekeeping gene to undifferentiated H1-hESC using the ΔΔCt method. Primer details are outlined in Table IV.

[2] = system: H1-hESC-derived S3D5 cells; assay: FACS quantification of protein co-presence in S3D5 cells
Protocol: as §1
Quantification of differentiated cells: For quantification of protein presence co-localization, S3D5 cells were harvested and analyzed by FACS. FACS staining was conducted as described in Nature Biotechnology, 2014 (32) 11, 1121-1133, incorporated herein by reference in its entirety, and using the antibodies listed in Table II. In brief, differentiated cells were incubated in TrypLE™ Express (Life Technologies, Carlsbad, Calif., Catalog No. 12604) for 5-10 minutes at 37° C., released into a single-cell suspension, after which they were washed twice with a staining buffer of PBS containing 0.2% BSA (BD Biosciences, San Jose, Calif., Catalog No. 554657). Intracellular antibody staining was accomplished by utilizing the LIVE/DEAD Violet Fluorescent reactive dye (Life Technologies, Carlsbad, Calif., Catalog No. L34955) at 4° C. for 30 minutes followed by a single wash in cold PBS. Fixing of cells was in 300 μl of Cytofix/Cytoperm Buffer (BD Biosciences, San Jose, Calif., Catalog No. 554723) followed by two washes in Perm/Wash Buffer (BD Biosciences, San Jose, Calif., Catalog No. 554722). Cells were then incubated with the appropriate antibodies at 4° C. for 30 minutes (for unconjugated antibodies) or 1 hour (for conjugated antibodies), and then washed twice prior to analysis on the BD FACS Canto II using BD FACS Diva Software with at least 30,000 events being acquired. Non-viable cells were excluded during FACS analysis, and gating was determined by using isotype antibodies (“IgG”). IgG FACS data is shown as the top panel for each FACS experiment presented. Antibodies were tested for specificity using positive controls, such as Caco-2 cells, or negative controls, such as S1D3 definitive endoderm (“DE”) cells.

[3] = system: H1-hESC-derived S3D5 cells; assay: Cell number characterization using the Nucleocounter NC-100
Protocol: A summary of a differentiation method, including the important medium components, growth factors and small molecules that were added to each stage, and key stage-specific markers of the differentiating intestinal midgut endoderm cells (FOXA2; CDX2; KLF5; SOX9; PDX1^LO) is depicted in FIG. 1A. As compared to the neutral pH noted for S2D2 (7.35±0.04), cells were exposed to slightly acidic conditions in the BLAR medium, during the entirety of stage 3 (pH; S3D1, 6.98±0.05; S3D2, 7.02±0.04; S3D5, 7.18±0.03) (FIG. 1B), and as a result of lower sodium bicarbonate levels in BLAR medium. The pH of the culture can range from about 6.8 to 7.2 during the five days of stage 3. FIG. 1C depicts representative phase-contrast images of a S3D5 monolayer (left), and human epithelial colon adenocarcinoma cell line (“Caco-2”) (right), which was used as a benchmark for characterization of differentiation. A uniform morphology at S3D5 was observed.

[4] = S3D5, compared to pancreas-biased S4D3 cells

Substance: BMP4: Bone morphogenic protein-4, 50 ng/ml with 1 μM retinoic acid in BLAR medium during Stage 3
- ALB gene expression ([1]; S3D5): not observed
- HOXA13 gene expression ([1]; S3D5): not induced
- HOXC5 gene expression ([1]; S3D5): strongly induced
- KLF5 gene expression ([1]; S3D5): upregulated
- LGR5 gene expression ([1]; S3D5): not induced
- SOX2 gene expression ([1]; S3D5): below levels seen in hESC and Caco-2 cells
- SOX9 gene expression ([1]; S3D5, compared to Caco-2 cells): Strong induction
- PDX1 gene expression [1, 4]: induced at low levels
- PTF1A gene expression [1, 4]: not induced
- CDX2 gene expression ([1]; during Stage 3): induced
- FOXA2 gene expression ([1]; during Stage 3): maintained
- S3D5 cells exhibiting SOX2 and CDX2 co-presence [2]: 1.45±0.15%
- percent of cells co-positive for both CDX2 and PDX1 [2]: 69.4±14.2%
- percent of cells co-present for both CDX2 and SOX9 [2]: 98.7±0.25%
- percent of S3D5 cells co-present for both CDX2 and FOXA2 protein ([2]; Stage 3 in BLAR medium with 1 μM retinoic acid and 50 ng/ml BMP): 90.0±5.85%
- percentage KI67-protein positive cells of total S3D5 cells ([2]; total cells >90% CDX2-positive): 16.8±3.12%
- S3D5 cells obtained from one hESC [3]: 4.56±2.60

— patent US10420803B2, “Differentiation of pluripotent stem cells to intestinal midgut endoderm cells” (Janssen Biotech, Inc., priority 2016, dated 2019)
